The text below walks through data of patent publication US10717749B2, “Macrocyclic sulfondiimine compounds” (BAYER PHARMA AKTIENGESELLSCHAFT, priority 2015, dated 2020).

One assay concerns the target T1, CDK2/CycE (Homo sapiens, UniProt P24941).
T1 construct: GST; purchased ProQinase GmbH (Freiburg, Germany); host or cells: insect cells (Sf9)
Briefly: CDK2/CycE kinase assay (Method 2a, TR-FRET, 10 μM ATP). It counts as biochemical. From the text: 2a. CDK2/CycE Kinase Assay:
CDK2/CycE-inhibitory activity of compounds of the present invention was quantified employing the CDK2/CycE TR-FRET assay as described in the following paragraphs:
Recombinant fusion proteins of GST and human CDK2 and of GST and human CycE, expressed in insect cells (Sf9) and purified by Glutathion-Sepharose affinity chromatography, were purchased from ProQinase GmbH (Freiburg, Germany). As substrate for the kinase reaction biotinylated peptide biotin-Ttds-YISPLKSPYKISEG (C-terminus in amid form) was used which can be purchased e.g. from the company JERINI Peptide Technologies (Berlin, Germany).
For the assay 50 nl of a 100 fold concentrated solution of the test compound in DMSO was pipetted into a black low volume 384 well microtiter plate (Greiner Bio-One, Frickenhausen, Germany), 2 μl of a solution of CDK2/CycE in aqueous assay buffer [50 mM Tris/HCl pH 8.0, 10 mM MgCl2, 1.0 mM dithiothreitol, 0.1 mM sodium ortho-vanadate, 0.01% (v/v) Nonidet-P40 (Sigma)] were added and the mixture was incubated for 15 min at 22° C. to allow pre-binding of the test compounds to the enzyme before the start of the kinase reaction. […] The concentration of CDK2/CycE was adjusted depending of the activity of the enzyme lot and was chosen appropriate to have the assay in the linear range, typical concentrations were in the range of 130 ng/mL. The reaction was stopped by the addition of 5 μl of a solution of TR-FRET detection reagents (0.2 μM streptavidine-XL665 [Cisbio Bioassays, Codolet, France] and 1 nM anti-RB(pSer807/pSer811)-antibody from BD Pharmingen [#558389] and 1.2 nM LANCE EU-W1024 labeled anti-mouse IgG antibody [Perkin-Elmer, product no. AD0077]) in an aqueous EDTA-solution (100 mM EDTA, 0.2% (w/v) bovine serum albumin in 100 mM HEPES pH 7.5).
The resulting mixture was incubated 1 h at 22° C. to allow the formation of complex between the phosphorylated biotinylated peptide and the detection reagents. Subsequently the amount of phosphorylated substrate was evaluated by measurement of the resonance energy transfer from the Eu-chelate to the streptavidine-XL. Therefore, the fluorescence emissions at 620 nm and 665 nm after excitation at 350 nm was measured in a TR-FRET reader, e.g. a Rubystar (BMG Labtechnologies, Offenburg, Germany) or a Viewlux (Perkin-Elmer). The ratio of the emissions at 665 nm and at […] was taken as the measure for the amount of phosphorylated substrate. The data were normalised (enzyme reaction without inhibitor=0% inhibition, all other assay components but no enzyme=100% inhibition).
Background: TR-FRET usually uses a lanthanide donor and a delayed reading to cut background.

For a further assay, the system named is MOLM-13. Briefly: Proliferation assay, Cell Titer-Glo. Type of assay: cell-based. Particulars: Homo sapiens; MOLM-13, 72-hour exposure; read-out: Inhibition of MOLM-13 cell proliferation IC50. How it is done: (§1) MOLM-13 human acute myeloid leukemia cells (DSMZ ACC 554) and A2780, human ovarian carcinoma cells (ECACC #93112519) were seeded at a density of 5,000 cells/well (MOLM-13), or 3,000 cells/well (A2780) in a 96-well multititer plate in 150 μL of growth medium supplemented 10% fetal calf serum. After 24 hours, cell viability of one plate (zero-point plate) was determined with the Cell Titer-Glo Luminescent Cell Viability Assay (Promega), whiletest compound was added to the wells of the other plates employing HP Dispenser (final concentrations in the range of 0.0001-10 μM and DMSO controls). Cell viability was assessed after 72-hour exposure with the Cell Titer-Glo Luminescent Cell Viability Assay (Promega). IC50 values (inhibitory concentration at 50% of maximal effect) were determined by means of a 4 parameter fit on measurement data which were normalized to vehicle (DMSO) treated cells (=100%) and measurement readings taken immediately before compound exposure (=0%).
A general note: In ATP-based viability assays light output follows the ATP content of the culture.

The subject of another assay is A2780. The assay can be described thus: Proliferation assay, Cell Titer-Glo. It counts as cell-based. The following applies: Homo sapiens; A2780, 72-hour exposure; read-out: Inhibition of A2780 cell proliferation IC50. On the procedure:
as §1

As to `CS(=N)(Cc1cc2nc(c1)OCCCOc1cc(F)ccc1-c1cc(ncc1F)N2)=NCCCO` (racemic) [Example 2, (rac)-3-(2-{[15,19-difluoro-3,4-dihydro-2H,11H-10,6-(azeno)-12,16-(metheno)-1,5,11,13-benzodioxadiazacyclooctadecin-8-yl]methyl}-2-methyl-2λ^6-diazathia-1,2-dien-1-yl)propan-1-ol], the IC50 at CDK2/CycE is 22.5 nM; in the assay on MOLM-13 it was 5.3 nM; in the assay with A2780 it was 5.4 nM.

With `CS(=N)(Cc1cc2nc(c1)OCCCOc1cc(F)ccc1-c1cc(ncc1F)N2)=NC#N` (racemic) [Example 3, (rac)-[{[15,19-difluoro-3,4-dihydro-2H,11H-10,6-(azeno)-12,16-(metheno)-1,5,11,13-benzodioxadiazacyclooctadecin-8-yl]methyl}(imino)methyl-λ^6-sulfanylidene]cyanamide], the IC50 at CDK2/CycE came out at 6 nM; with MOLM-13 it was 2 nM; in the assay on A2780, 2.6 nM.

In the case of `CN=S(C)(=N)Cc1cc2nc(c1)OCCCOc1cc(F)ccc1-c1cc(ncc1F)N2` (racemic) [Example 4, (rac)-8-[(N,S-dimethylsulfonodiimidoyl)methyl]-15,19-difluoro-3,4-dihydro-2H,11H-10,6-(azeno)-12,16-(metheno)-1,5,11,13-benzodioxadiazacyclooctadecine], the figures for the IC50 against CDK2/CycE, in the assay with MOLM-13 and in the assay on A2780 were 37.3 nM, 4.7 nM and 11.7 nM, respectively.

Turning to `CS(=N)(Cc1cc2cc(c1)OCCCCOc1cc(F)ccc1-c1nc(ncc1F)N2)=NC1CC1` (racemic) [Example 9, (rac)-9-[(N-cyclopropyl-S-methylsulfonodiimidoyl)methyl]-16,20-difluoro-2,3,4,5-tetrahydro-12H-13,17-(azeno)-11,7-(metheno)-1,6,12,14-benzodioxadiazacyclononadecine], the IC50 against CDK2/CycE was found to be 143 nM; in the assay with MOLM-13, 22.2 nM; with A2780 it was 31.3 nM.

Consider `CN=S(C)(=N)Cc1cc2cc(c1)OCCCCOc1cc(F)ccc1-c1nc(ncc1F)N2` (racemic) [Example 10, (rac)-9-[(N,S-dimethylsulfonodiimidoyl)methyl]-16,20-difluoro-2,3,4,5-tetrahydro-12H-13,17-(azeno)-11,7-(metheno)-1,6,12,14-benzodioxadiazacyclononadecine], for which the IC50 with A2780 came to 29 nM.

With `CS(=N)(=N)Cc1cc2nc(c1)OCCCOc1cc(F)ccc1-c1cc(ncc1F)N2` [Example 1, 15,19-difluoro-8-[(S-methylsulfonodiimidoyl)methyl]-3,4-dihydro-2H,11H-10,6-(azeno)-12,16-(metheno)-1,5,11,13-benzodioxadiazacyclooctadecine], the IC50 at CDK2/CycE amounted to 16.4 nM; in the assay on MOLM-13 it was 2.8 nM; in the assay with A2780 it was 4 nM.

As for `CS(=N)(=N)Cc1cc2cc(c1)OCCCCOc1cc(F)ccc1-c1nc(ncc1F)N2` [Example 5, 16,20-difluoro-9-[(S-methylsulfonodiimidoyl)methyl]-2,3,4,5-tetrahydro-12H-13,17-(azeno)-11,7-(metheno)-1,6,12,14-benzodioxadiazacyclononadecine], the IC50 against CDK2/CycE came to 92.6 nM; in the assay on MOLM-13, 8.2 nM; in the assay with A2780, 11.7 nM.

For the compound `CS(=N)(=N)Cc1cc2cc(c1)OCCCCOc1c(ccc(F)c1F)-c1nc(ncc1F)N2` [Example 6, 16,20,21-trifluoro-9-[(S-methylsulfonodiimidoyl)methyl]-2,3,4,5-tetrahydro-12H-13,17-(azeno)-11,7-(metheno)-1,6,12,14-benzodioxadiazacyclononadecine], the IC50 at CDK2/CycE is 1430 nM; in the assay on MOLM-13 it was 113 nM; in the assay with A2780, 123 nM.

Consider `CS(=N)(=N)Cc1cc2cc(c1)OCCCCOc1c(F)cccc1-c1nc(ncc1F)N2` [Example 7, 16,21-difluoro-9-[(S-methylsulfonodiimidoyl)methyl]-2,3,4,5-tetrahydro-12H-13,17-(azeno)-11,7-(metheno)-1,6,12,14-benzodioxadiazacyclononadecine], for which the IC50 on CDK2/CycE was 1170 nM; in the assay on MOLM-13, 126 nM; in the assay with A2780, 125 nM.

For the compound `CS(=N)(=N)Cc1cc2nc(c1C#N)OCCCOc1cc(F)ccc1-c1cc(ncc1F)N2` [Example 8, 15,19-difluoro-8-[(S-methylsulfonodiimidoyl)methyl]-3,4-dihydro-2H,11H-10,6-(azeno)-12,16-(metheno)-1,5,11,13-benzodioxadiazacyclooctadecine-7-carbonitrile], the figures for the IC50 at CDK2/CycE, in the assay with MOLM-13 and in the assay with A2780 were 71.2 nM, 4.2 nM and 18.1 nM, respectively.
